According to ChEMBL document CHEMBL1152547, “Synthesis and evaluation of anticancer activity of 2-arylamino-6-trifluoromethyl-3-(hydrazonocarbonyl)pyridines” (Bioorg Med Chem, 2009):

Legend:
Format in all cases: functional
[1] = Cytotoxicity against human NCI60 cells assessed as cell growth at 10 uM after 48 hrs by sulforhodamine B assay; conditions: NCI60, 48 h, read-out: Activity
[2] = Cytotoxicity against human NCI60 cells after 48 hrs by sulforhodamine B assay; conditions: NCI60, 48 h; for TGI: read-out: pTGI (converted)
T47D = experiment: Cytotoxicity against human T47D cells after 48 hrs by sulforhodamine B assay
CAKI-1 = experiment: Cytotoxicity against human Caki1 cells after 48 hrs by sulforhodamine B assay; conditions: CAKI-1, 48 h
RXF 393 = experiment: Cytotoxicity against human RXF393 cells after 48 hrs by sulforhodamine B assay; conditions: RXF 393, 48 h
HOP-92 = experiment: Cytotoxicity against human HOP92 cells after 48 hrs by sulforhodamine B assay; conditions: HOP-92, 48 h
OVCAR-3 = experiment: Cytotoxicity against human OVCAR-3 cells after 48 hrs by sulforhodamine B assay; conditions: OVCAR-3, 48 h
A498 = experiment: Cytotoxicity against human A498 cells after 48 hrs by sulforhodamine B assay; conditions: A498, 48 h
786-0 = experiment: Cytotoxicity against human 786-0 cells after 48 hrs by sulforhodamine B assay; conditions: 786-0, 48 h
SR = experiment: Cytotoxicity against human SR cells after 48 hrs by sulforhodamine B assay
HCT-116 = experiment: Cytotoxicity against human HCT116 cells after 48 hrs by sulforhodamine B assay; conditions: HCT-116, 48 h
HOP-62 = experiment: Cytotoxicity against human HOP62 cells after 48 hrs by sulforhodamine B assay; conditions: HOP-62, 48 h
[3] = read-out: pLC50 (the source's name) (converted)

Row | Compound | growth at 10 µM [1] | TGI [2] | further results
1 | Cc1ccc(Cl)cc1Nc1nc(C(F)(F)F)ccc1C(=O)N/N=C/c1ccc([N+](=O)[O-])cc1 | 85.7% |  | 
2 | Cc1ccc(Cl)cc1Nc1nc(C(F)(F)F)ccc1C(=O)N/N=C/c1ccc(F)cc1 | 33% |  | 
3 | Cc1cc(Cl)ccc1Nc1nc(C(F)(F)F)ccc1C(=O)N/N=C/c1cccc(O)c1 | 27.1% | 11 µM | GI50 (T47D): 0.0355 µM; CC50 (T47D; [3]): 21.4 µM; TGI (T47D; read-out: pTGI (converted)): 2.14 µM; GI50 (CAKI-1): 0.017 µM; CC50 (CAKI-1; [3]): 24 µM; TGI (CAKI-1; read-out: pTGI (converted)): 3.31 µM; GI50 (RXF 393): 0.195 µM; TGI (RXF 393; read-out: pTGI (converted)): 11.2 µM
4 | O=C(N/N=C/c1ccc(Cl)cc1Cl)c1ccc(C(F)(F)F)nc1Nc1cccc(C(F)(F)F)c1 | 66.3% |  | 
5 | O=C(N/N=C/c1ccc([N+](=O)[O-])cc1)c1ccc(C(F)(F)F)nc1Nc1cccc(C(F)(F)F)c1 | 95.2% |  | 
6 | Cc1ccc(Cl)cc1Nc1nc(C(F)(F)F)ccc1C(=O)N/N=C/c1ccc(Cl)cc1 | 0.47% | 5.25 µM | GI50 [2]: 1.48 µM
7 | COc1ccc(Cl)cc1Nc1nc(C(F)(F)F)ccc1C(=O)N/N=C/c1cccc(O)c1 | 59.1% |  | 
8 | Cc1cc(Cl)ccc1Nc1nc(C(F)(F)F)ccc1C(=O)N/N=C/c1ccncc1 | 54.2% |  | 
9 | Cc1cc(Cl)ccc1Nc1nc(C(F)(F)F)ccc1C(=O)N/N=C/c1ccc(Cl)cc1Cl | 60.1% |  | 
10 | O=C(N/N=C/c1ccc(Cl)cc1)c1ccc(C(F)(F)F)nc1Nc1cccc(C(F)(F)F)c1 | 9.64% | 6.61 µM | GI50 (HOP-92): 0.0437 µM; CC50 (HOP-92; [3]): 20.9 µM; TGI (HOP-92; read-out: pTGI (converted)): 0.589 µM
11 | O=C(O)CCCc1ccc(N(CCCl)CCCl)cc1 [CHLORAMBUCIL] |  | 35.5 µM | 
12 | O=C(N/N=C/c1cccc(O)c1)c1ccc(C(F)(F)F)nc1Nc1cccc(C(F)(F)F)c1 | 103% |  | 
13 | COc1ccc(Cl)cc1Nc1nc(C(F)(F)F)ccc1C(=O)N/N=C/c1ccc(N(C)C)cc1 | 95.6% |  | 
14 | Cc1cc(Cl)ccc1Nc1nc(C(F)(F)F)ccc1C(=O)N/N=C/c1ccc(F)cc1 | 6.66% | 7.08 µM | 
15 | Cc1ccc(Cl)cc1Nc1nc(C(F)(F)F)ccc1C(=O)N/N=C/c1ccc(Cl)cc1Cl | 62.6% |  | 
16 | COc1ccc(Cl)cc1Nc1nc(C(F)(F)F)ccc1C(=O)N/N=C/c1ccncc1 | 62.5% |  | 
17 | Nc1nc(C(F)(F)F)ccc1C(=O)N/N=C/c1c(Cl)cccc1Cl | 102% |  | 
18 | O=C(N/N=C/c1c(Cl)cccc1Cl)c1cccnc1Nc1cccc(C(F)(F)F)c1 | 37.8% | 39.8 µM | 
19 | Cc1cc(Cl)ccc1Nc1nc(C(F)(F)F)ccc1C(=O)N/N=C/c1ccccc1Cl | 14.8% | 5.13 µM | GI50 (OVCAR-3): 0.191 µM; CC50 (OVCAR-3; [3]): 8.32 µM; TGI (OVCAR-3; read-out: pTGI (converted)): 0.513 µM; GI50 (A498): < 0.01 µM; CC50 (A498; [3]): 17.8 µM; TGI (A498; read-out: pTGI (converted)): 2.69 µM
20 | Cc1cc(Cl)ccc1Nc1nc(C(F)(F)F)ccc1C(=O)NCC(=O)N/N=C/c1c(Cl)cccc1Cl | 68.1% |  | 
21 | COc1cc(/C=N/NC(=O)c2ccc(C(F)(F)F)nc2Nc2ccc(Cl)cc2C)ccc1O | 26.8% | 10.5 µM | 
22 | Cc1ccc(Cl)cc1Nc1nc(C(F)(F)F)ccc1C(=O)N/N=C/c1c(Cl)cccc1Cl | -3.82% | 6.17 µM | GI50 (786-0): 0.251 µM; CC50 (786-0; [3]): 3.02 µM; TGI (786-0; read-out: pTGI (converted)): 0.603 µM; GI50 (SR): 0.0562 µM; CC50 (SR; [3]): 41.7 µM; TGI (SR; read-out: pTGI (converted)): 2.69 µM; GI50 (HCT-116): 0.214 µM; CC50 (HCT-116; [3]): 3.31 µM; TGI (HCT-116; read-out: pTGI (converted)): 0.49 µM; GI50 (HOP-62): 0.251 µM; CC50 (HOP-62; [3]): 5.75 µM; TGI (HOP-62; read-out: pTGI (converted)): 0.776 µM
23 | COc1cc(/C=N/NC(=O)c2ccc(C(F)(F)F)nc2Nc2cccc(C(F)(F)F)c2)ccc1O | 50.1% |  | 
24 | COc1ccc(Cl)cc1Nc1nc(C(F)(F)F)ccc1C(=O)N/N=C/c1ccc(Cl)cc1Cl | 72.1% |  | 
